Results taken from patent US9833497B2, “Human originated EGF domain proteins and use of the same” (CHENGDU SOURCEBIO LIMITED-LIABILITY COMPANY, priority 2013, dated 2017).

Assays:
Format in all cases: cell-based
Proteus vulgaris = experiment: MIC against Gram-negative bacteria: Proteus vulgaris; conditions: 10 h cultivation at 37° C.; for MIC (μg/mL) P. vulgaris / MIC against P. vulgaris: 5×10^5 CFU/mL; for MIC against P. vulgaris: Proteus vulgaris
How it was run: (§1)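 Inocula prepared by growing LB cultures at 37° C to 0.5 McFarland, centrifuging at 4000×g, and resuspending in fresh medium. Final density 5×10^5 CFU/mL per well with two-fold dilutions of purified EGF domain protein; shaking incubation at 37° C.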

Pseudomonas aeruginosa = experiment: MIC against Gram-negative bacteria: Pseudomonas aeruginosa; conditions: 10 h cultivation at 37° C.; for MIC (μg/mL) P. aeruginosa / MIC against P. aeruginosa: 5×10^5 CFU/mL; for MIC against P. aeruginosa: Pseudomonas aeruginosa
How it was run: as §1

Enterobacter cloacae = experiment: MIC against Gram-negative bacteria: Enterobacter cloacae; conditions: 10 h cultivation at 37° C.; for MIC (μg/mL) E. cloacae / MIC against E. cloacae: 5×10^5 CFU/mL; for MIC against E. cloacae: Enterobacter cloacae
How it was run: as §1

Proteus mirabilis = experiment: MIC against Gram-negative bacteria: Proteus mirabilis; conditions: 10 h cultivation at 37° C.; for MIC (μg/mL) P. mirabilis / MIC against P. mirabilis: 5×10^5 CFU/mL; for MIC against P. mirabilis: Proteus mirabilis
How it was run: as §1

E. coli DH5α = experiment: Antibacterial activity: MIC and growth curve against E. coli DH5α in 96-well plate; conditions: minimal inhibitory concentration against E. coli DH5α; 96-well plate, 5×10^5 CFU/mL, 37° C., judged after 8 h
How it was run: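 Log-phase bacteria (OD600 ~0.5) resuspended in LB at 5×10^5 CFU/mL, exposed to recombinant protein at 50, 25, 12.5 μg/mL final in triplicate, 37 °C shaking at 175 rpm. OD600 read every 30 min; MIC is lowest concentration showing no growth.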

Klebsiella pneumonia = experiment: MIC against Gram-negative bacteria: Klebsiella pneumonia; conditions: 10 h cultivation at 37° C.; for MIC (μg/mL) K. pneumonia / MIC against K. pneumonia: 5×10^5 CFU/mL; for MIC against K. pneumonia: Klebsiella pneumonia
How it was run: as §1

E. coli BL21 = experiment: MIC against Gram-negative bacteria: E. coli BL21; conditions: E. coli BL21, 10 h cultivation at 37° C.; for MIC (μg/mL) E. coli BL21 / MIC against E. coli BL21: 5×10^5 CFU/mL
How it was run: as §1

Serratia marcescens = experiment: MIC against Gram-negative bacteria: Serratia marcescens; conditions: 10 h cultivation at 37° C.; for MIC (μg/mL) S. marcescens / MIC against S. marcescens: 5×10^5 CFU/mL; for MIC against S. marcescens: Serratia marcescens
How it was run: as §1

Aeromonas hydrophila = experiment: MIC against Gram-negative bacteria: Aeromonas hydrophila; conditions: 10 h cultivation at 37° C.; for MIC (μg/mL) A. hydrophila / MIC against A. hydrophila: 5×10^5 CFU/mL; for MIC against A. hydrophila: Aeromonas hydrophila
How it was run: as §1

Citrobacter diversus = experiment: MIC against Gram-negative bacteria: Citrobacter diversus; conditions: 10 h cultivation at 37° C.; for MIC (μg/mL) C. diversus / MIC against C. diversus: 5×10^5 CFU/mL; for MIC against C. diversus: Citrobacter diversus
How it was run: as §1

Moraxella catarrhalis = experiment: MIC against Gram-negative bacteria: Moraxella catarrhalis; conditions: 10 h cultivation at 37° C.; for MIC (μg/mL) M. catarrhalis / MIC against M. catarrhalis: 5×10^5 CFU/mL; for MIC against M. catarrhalis: Moraxella catarrhalis
How it was run: as §1

Substance | MIC (μg/mL) P. vulgaris (Proteus vulgaris; P. vulgaris) | MIC (μg/mL) P. aeruginosa (Pseudomonas aeruginosa; P. aeruginosa) | MIC (μg/mL) E. cloacae (Enterobacter cloacae; E. cloacae) | MIC (μg/mL) P. mirabilis (Proteus mirabilis; P. mirabilis) | MIC (E. coli DH5α) | MIC (μg/mL) K. pneumonia (Klebsiella pneumonia; K. pneumonia) | MIC (μg/mL) E. coli BL21 (E. coli BL21) | MIC (μg/mL) S. marcescens (Serratia marcescens; S. marcescens) | MIC (μg/mL) A. hydrophila (Aeromonas hydrophila; A. hydrophila) | MIC (μg/mL) C. diversus (Citrobacter diversus; C. diversus) | MIC (μg/mL) M. catarrhalis (Moraxella catarrhalis; M. catarrhalis) | MIC against P. vulgaris (Proteus vulgaris) | MIC against P. aeruginosa (Pseudomonas aeruginosa) | MIC against E. cloacae (Enterobacter cloacae) | MIC against P. mirabilis (Proteus mirabilis) | MIC against K. pneumonia (Klebsiella pneumonia) | MIC against E. coli BL21 (E. coli BL21) | MIC against S. marcescens (Serratia marcescens) | MIC against A. hydrophila (Aeromonas hydrophila) | MIC against C. diversus (Citrobacter diversus) | also measured
PRT203 (CSPAFCNKRGICNNKHHCHCNYLWDPPNCL; listed as Homo sapiens) | 25 µg/mL | 12.5 µg/mL | 12.5 µg/mL | 50 µg/mL | 12.5 µg/mL | 25 µg/mL | 25 µg/mL | 50 µg/mL | 25 µg/mL | 50 µg/mL | 25 µg/mL | – | – | – | – | – | – | – | – | – | –
PRT1359 (SREICPVPCSEEHGTCVDGLCVCHDGFAGDDCN; listed as Homo sapiens) | – | – | – | – | 25 µg/mL | – | – | – | – | – | – | 12.5 µg/mL | 25 µg/mL | 25 µg/mL | 25 µg/mL | 12.5 µg/mL | 12.5 µg/mL | 25 µg/mL | 12.5 µg/mL | 25 µg/mL | MIC against M. catarrhalis (Moraxella catarrhalis): 12.5 µg/mL
PRT188 (HVSDCARNPCAHGGTCHDLENGLMCTCPAGFSGRRCE; listed as Homo sapiens) | 25 µg/mL | 50 µg/mL | 50 µg/mL | 12.5 µg/mL | 12.5 µg/mL | 12.5 µg/mL | 12.5 µg/mL | 12.5 µg/mL | 12.5 µg/mL | 12.5 µg/mL | 25 µg/mL | – | – | – | – | – | – | – | – | – | –
PRT1442 (DKDECAKDNGGCQHECVNTFGSYLCRCRNGYWLHENGHDCK; listed as Homo sapiens) | – | – | – | – | 12.5 µg/mL | – | – | – | – | – | – | 12.5 µg/mL | 12.5 µg/mL | 12.5 µg/mL | 25 µg/mL | 50 µg/mL | 12.5 µg/mL | 25 µg/mL | 25 µg/mL | 25 µg/mL | MIC against M. catarrhalis (Moraxella catarrhalis): 50 µg/mL
PRT894 (NLDDCASSPCDSGTCLDKIDGYECACEPGYTGSMCN; listed as Homo sapiens) | – | – | – | – | 12.5 µg/mL | – | – | – | – | – | – | – | – | – | – | – | – | – | – | – | MIC (Proteus vulgaris; P. vulgaris): 50 µg/mL; MIC (Pseudomonas aeruginosa; P. aeruginosa): 12.5 µg/mL; MIC (Enterobacter cloacae; E. cloacae): 12.5 µg/mL; MIC (Proteus mirabilis; P. mirabilis): 12.5 µg/mL; MIC (Klebsiella pneumonia; K. pneumonia): 50 µg/mL; MIC (E. coli BL21): 50 µg/mL; MIC (Serratia marcescens; S. marcescens): 12.5 µg/mL; MIC (Aeromonas hydrophila; A. hydrophila): 50 µg/mL; MIC (Citrobacter diversus; C. diversus): 12.5 µg/mL; MIC (Moraxella catarrhalis; M. catarrhalis): 50 µg/mL
